We go through two molecules from US20040072851A1, “Medicinal compositions for treating lower uropathy” (priority 2001, published 2004).

Assay [1] concerns patients suffering from lower urinary tract symptoms. Put plainly: Clinical test to patients suffering from lower urinary tract symptoms (four-week test). It counts as in vivo, human. The conditions noted are these: for Total score for subjective symptoms after the test: 0.2 mg capsule orally once daily after breakfast; for Changing Rate (%) of total score for subjective symptoms: 0.2 mg capsule orally once daily, after vs before the test. As for the experimental part:
A clinical test was carried out under the following conditions using the patients suffering from lower urinary tract symptoms. (cf. Chapter 1: Indexes for Evaluation of Prostatic Hypertrophy in “Guideline for Clinical Test for Urinary Disturbance” published by Iyaku Tosho Shuppan) Subjects: four patients diagnosed as lower urinary tract symptoms, i.e. urinary disturbance without clear organic or neurological abnormality in lower urinary tract (3 males and 1 female). Test drug and administering method: One capsule containing 0.2 mg of tamsulosin hydrochloride was orally administered once daily after breakfast. Test period: four weeks (28 days) Observed items: Evaluations and measurements were made for the following items before and after the administration. (1) Total Score for Subjective Symptoms Questioning was done to the patients for the following items and the total score was obtained. (2) QOL Index With regard to an index for quality of life (QOL), a questioning that “How do you think if the present urinary condition continues in future as well?” was done as a total diagnosis concerning the urinary disturbance and any of the following evaluations was collected.

Assay [2] has the same test system. The assay can be described thus: Clinical test to patients suffering from lower urinary tract symptoms (twelve-week test). It counts as in vivo, human. As to the method:
A clinical test was carried out under the following conditions using the patients suffering from lower urinary tract symptoms. Subjects: eighteen patients diagnosed as lower urinary tract symptoms, i.e. urinary disturbance without clear organic or neurological abnormality in lower urinary tract (15 males and 3 female, age: 57.2±14.2). Test drug and administering method: One capsule containing 0.2 mg of tamsulosin hydrochloride was orally administered once daily after breakfast for four weeks and, after that, the dose after 4 weeks was controlled in consideration of the following criterion, and the dose was orally administered once daily after breakfast. [table] Test period: twelve weeks (84 days)(4 weeks (28 days) for 8 males) Observed items: Evaluations and measurements were made for the following items before and after the administration. (1) Total Score for Subjective Symptoms Total scores for the following <1>˜<7>before and after the administration were obtained in the same way as in Test Example 1. <1>Feel of residual urine, <2>Urination within two hours, <3>Break of urinary stream, <4>Urgency, <5>Force of urinary stream, <6>Straining upon urination and <7>Frequency of urination at night. (2) QOL Index “How do you think if the present urinating state continues in future as well?” (3) Test on Functions <1>maximum urinary stream rate <2>average urinary stream rate

The next assay deals with neurogenic bladder. The conditions noted are these: applicant's earlier filing PCT/JP99/03343; cited from earlier work.
Where [3] appears, read: avg. of four patients, four weeks.
Setting [4] is: Female (n = 3), after 4 week, 0.2 mg/day orally.
[5] abbreviates: Female (n = 3), after 12 week, 0.2 mg/day for 4 weeks, then 0.2 or 0.4 mg/day orally.
The mark [6] stands for this setting: Total (n = 10), after 12 week, 0.2 mg/day for 4 weeks, then 0.2 or 0.4 mg/day orally.
[7] abbreviates: Total (n = 18), after 4 week, 0.2 mg/day orally.
Setting [8] is: male (n = 7), after 12 week, 0.2 mg/day for 4 weeks, then 0.2 or 0.4 mg/day orally.
The mark [9] stands for this setting: male (n = 15), after 4 week, 0.2 mg/day orally.

Structures are written as SMILES. Structures can show the parent of a compound that is named as a salt.

As for `CCOc1ccccc1OCCN[C@H](C)Cc1ccc(OC)c(S(N)(=O)=O)c1` [tamsulosin hydrochloride], the “Total score for subjective symptoms after the test” value in assay [1] (setting [3]) stood at 13.3; in assay [1] (patient four, four weeks) it was 13; in assay [1] (patient one, four weeks), 11; in assay [1] (patient three, four weeks), 20; in assay [1] (patient two, four weeks) it was 9. For the same molecule, the “Changing Rate (%) of total score for subjective symptoms” value is −40.8% in assay [1] (setting [3]); −48.0% in assay [1] (patient four, four weeks); −26.7% in assay [1] (patient one, four weeks); −23.1% in assay [1] (patient three, four weeks); −65.4% in assay [1] (patient two, four weeks). Moreover, in assay [1] (four patients, average, after vs before administration, four weeks), the “Improvement in QOL index” value is reported as “improvement of one point in average”. In addition, the “QOL index, mean value after the administration” value in assay [1] (four patients, 0.2 mg orally once daily, four weeks, scale 0 (quite satisfactory) to 6 (quite unsatisfactory), before administration 4.8) was determined as 3.8. In addition, in assay [1] (four-week test, 0.2 mg orally once daily), the “Overall conclusion on efficacy (total score for subjective symptom, QOL index)” value is recorded as “confirmed to be effective as a therapeutic agent for lower urinary tract symptoms”. Moreover, the “Changing Amt of Average urinary stream rate” value is “+2.2 ± 1.8 ml/s” in assay [2] (setting [4]); “+2.1 ± 2.8 ml/s” in assay [2] (setting [5]); “+3.8 ± 2.5 ml/s” in assay [2] (setting [6]); “+2.0 ± 3.3 ml/s” in assay [2] (setting [7]); “+4.6 ± 2.2 ml/s” in assay [2] (setting [8]); “+1.9 ± 3.6 ml/s” in assay [2] (setting [9]). In addition, the “Changing Amt of Maximum urinary stream rate” value in assay [2] (setting [4]) is “+3.8 ± 1.9 ml/s”; in assay [2] (setting [5]), “+6.2 ± 6.0 ml/s”; in assay [2] (setting [6]), “+7.3 ± 4.6 ml/s”; in assay [2] (setting [7]), “+3.1 ± 6.7 ml/s”; in assay [2] (setting [8]), “+7.8 ± 4.3 ml/s”; in assay [2] (setting [9]), “+2.9 ± 7.4 ml/s”. Further, the “Changing Amt of QOL Index” value in assay [2] (setting [4]) was −1.3 ± 1.2; in assay [2] (setting [5]), −3.0 ± 1.7; in assay [2] (setting [6]), −2.9 ± 1.7; in assay [2] (setting [7]) it was −1.6 ± 1.7; in assay [2] (setting [8]), −2.9 ± 1.9; in assay [2] (setting [9]), −1.6 ± 1.8. Besides, the “Changing Rate of Total score for subjective symptoms” value is recorded as −30.5 ± 16.9% in assay [2] (setting [4]); −37.4 ± 26.8% in assay [2] (setting [5]); −44.6 ± 32.1% in assay [2] (setting [6]); −40.9 ± 25.2% in assay [2] (setting [7]); −47.0 ± 35.6% in assay [2] (setting [8]); −43.0 ± 26.5% in assay [2] (setting [9]). In assay [2] (after 12 weeks, decided by Guideline for Clinical Test for Urinary Disturbance), the “effective rate (Degree of Improvement as a whole is more than "Useful")” value is reported as 70.0%. Moreover, the “Overall conclusion on efficacy (total score for subjective symptom, QOL index, test on functions)” value in assay [2] (twelve-week test) is “confirmed to be effective as a therapeutic agent for lower urinary tract symptoms”.

As to `CCOc1ccccc1OCCN[C@H](C)Cc1ccc(OC)c(S(N)(=O)=O)c1` [tamsulosin], in the assay on neurogenic bladder, the “Clinical efficacy for the therapy of neurogenic bladder” value is “clinically effectively for the therapy of neurogenic bladder”.
